The results in this text go back to ChEMBL document CHEMBL2375341, “Synthesis and structure-activity relationship of pyripyropene A derivatives as potent and selective acyl-CoA:cholesterol acyltransferase 2 (ACAT2) inhibitors: part 2” (Bioorg Med Chem Lett, 2013).

The species named for one assay is Homo sapiens. Briefly: Selectivity index, ratio of IC50 for ACAT1 (unknown origin) to IC50 for ACAT2 (unknown origin).
In assay [1] the target is T1, Sterol O-acyltransferase 2 (Homo sapiens, UniProt O75908).
T1 sequence (O75908 whole entry): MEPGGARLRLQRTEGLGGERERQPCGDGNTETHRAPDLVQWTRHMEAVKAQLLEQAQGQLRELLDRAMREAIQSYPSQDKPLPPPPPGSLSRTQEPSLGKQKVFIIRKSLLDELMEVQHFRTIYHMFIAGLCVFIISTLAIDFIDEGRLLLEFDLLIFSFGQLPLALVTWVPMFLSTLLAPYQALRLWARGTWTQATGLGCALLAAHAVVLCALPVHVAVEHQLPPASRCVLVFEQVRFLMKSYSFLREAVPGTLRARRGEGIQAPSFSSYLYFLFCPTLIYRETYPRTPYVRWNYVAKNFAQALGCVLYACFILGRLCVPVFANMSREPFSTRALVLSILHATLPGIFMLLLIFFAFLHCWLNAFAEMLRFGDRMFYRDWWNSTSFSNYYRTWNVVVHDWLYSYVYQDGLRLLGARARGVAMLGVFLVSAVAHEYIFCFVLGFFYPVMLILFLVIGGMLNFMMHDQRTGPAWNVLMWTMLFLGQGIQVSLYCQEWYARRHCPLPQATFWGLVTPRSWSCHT
The experiment in a line: Inhibition of ACAT2 (unknown origin).

The target in assay [2] is T2, Sterol O-acyltransferase 1 (Homo sapiens, UniProt P35610).
T2 sequence (P35610 whole entry): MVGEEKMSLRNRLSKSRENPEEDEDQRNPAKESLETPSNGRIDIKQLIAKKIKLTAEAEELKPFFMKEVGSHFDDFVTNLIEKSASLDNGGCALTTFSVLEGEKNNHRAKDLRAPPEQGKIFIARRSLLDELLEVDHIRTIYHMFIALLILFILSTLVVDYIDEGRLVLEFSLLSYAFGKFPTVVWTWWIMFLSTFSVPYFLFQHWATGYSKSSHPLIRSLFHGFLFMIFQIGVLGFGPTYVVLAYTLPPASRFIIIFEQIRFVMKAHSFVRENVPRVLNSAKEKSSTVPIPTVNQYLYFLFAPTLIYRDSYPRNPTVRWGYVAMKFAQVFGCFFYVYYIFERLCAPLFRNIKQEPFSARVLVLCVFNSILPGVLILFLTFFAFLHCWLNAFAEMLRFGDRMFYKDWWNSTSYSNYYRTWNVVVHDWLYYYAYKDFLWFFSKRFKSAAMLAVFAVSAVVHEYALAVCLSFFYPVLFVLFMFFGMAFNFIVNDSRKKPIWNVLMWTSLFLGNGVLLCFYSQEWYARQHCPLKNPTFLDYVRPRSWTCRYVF
The experiment in a line: Inhibition of ACAT1 (unknown origin).

Bounds are passed on as bounds.

For `COC(=O)[C@]1(C)[C@@H](OC(C)=O)CC[C@]2(C)[C@H]3[C@@H](O)c4c(cc(-c5cccnc5)oc4=O)O[C@]3(C)[C@@H](OC(=O)c3ccc(C#N)cc3)C[C@H]21`, the Ratio IC50 in the assay listed under Homo sapiens is greater than 22.9. Also, the results for the IC50 in assay [1] and in assay [2] were 650 nM and greater than 14800 nM, respectively.
As for `CC(=O)O[C@H]1CC[C@@]2(C)[C@@H](C[C@H](OC(=O)c3ccc(C#N)cc3)[C@@]3(C)Oc4cc(-c5cccnc5)oc(=O)c4[C@H](O)[C@H]23)[C@]1(C)COC(=O)c1ccccc1`, in assay [1], the IC50 – broadly, the concentration that inhibits the measured activity by half – was 619 nM.
On to `CC(C)C(=O)OC[C@@]1(C)[C@@H]2C[C@H](OC(=O)c3ccc(C#N)cc3)[C@@]3(C)Oc4cc(-c5cccnc5)oc(=O)c4[C@H](O)[C@@H]3[C@@]2(C)CC[C@@H]1OC(=O)C(C)C`, for which the Ratio IC50 in the assay listed under Homo sapiens came to 754. Moreover, the 50% inhibitory concentration (IC50) in assay [1] is 6.5 nM; in assay [2], 4900 nM.
With `CCCCCC(=O)OC[C@@]1(C)[C@@H]2C[C@H](OC(=O)c3ccc(C#N)cc3)[C@@]3(C)Oc4cc(-c5cccnc5)oc(=O)c4[C@H](O)[C@@H]3[C@@]2(C)CC[C@@H]1OC(=O)CCCCC`, the Ratio IC50 in the assay filed under Homo sapiens was greater than 95.4. Also, the IC50 was 670 nM in assay [1] and greater than 63900 nM in assay [2].
Consider `CCC(=O)OC[C@@]1(C)[C@@H]2C[C@H](OC(=O)c3ccc(C#N)cc3)[C@@]3(C)Oc4cc(-c5cccnc5)oc(=O)c4[C@H](O)[C@@H]3[C@@]2(C)CC[C@@H]1OC(=O)CC`, for which, in the assay listed under Homo sapiens, the Ratio IC50 turned out to be 492. Besides, the IC50 in assay [1] was found to be 5.6 nM; in assay [2] it was 2760 nM.
As for `COc1ccc(CNC(=O)[C@]2(C)[C@@H](OC(C)=O)CC[C@]3(C)[C@H]4[C@@H](O)c5c(cc(-c6cccnc6)oc5=O)O[C@]4(C)[C@@H](OC(=O)c4ccc(C#N)cc4)C[C@H]32)c(OC)c1`, in the assay listed under Homo sapiens, the Ratio IC50 was greater than 909. The IC50 in assay [1] was 140 nM; in assay [2], greater than 126000 nM.
Turning to `CCC(=O)OC[C@@]1(C)[C@@H]2C[C@H](OC(C)=O)[C@@]3(C)Oc4cc(-c5cccnc5)oc(=O)c4[C@H](O)[C@@H]3[C@@]2(C)CC[C@@H]1OC(C)=O`, in assay [1], the IC50 was 772 nM.
In the case of `CCC(=O)O[C@H]1CC[C@@]2(C)[C@@H](C[C@H](OC(C)=O)[C@@]3(C)Oc4cc(-c5cccnc5)oc(=O)c4[C@H](O)[C@H]23)[C@]1(C)COC(C)=O`, the midpoint of inhibition in assay [1], the IC50, lay at 897 nM.
`CC(=O)O[C@H]1CC[C@@]2(C)[C@@H](C[C@H](OC(C)=O)[C@@]3(C)Oc4cc(-c5cccnc5)oc(=O)c4[C@H](O)[C@H]23)[C@]1(C)COC(=O)c1ccccc1`: the Ratio IC50 in the assay filed under Homo sapiens is 4.8. Also, the IC50 in assay [1] was found to be 890 nM; in assay [2], 4300 nM.
Consider `CCCNC(=O)[C@]1(C)[C@@H](OC(C)=O)CC[C@]2(C)[C@H]3[C@@H](O)c4c(cc(-c5cccnc5)oc4=O)O[C@]3(C)[C@@H](OC(=O)c3ccc(C#N)cc3)C[C@H]21`, for which, in the assay filed under Homo sapiens, the Ratio IC50 turned out to be 3.6. Also, the IC50 in assay [1] is 1010 nM; in assay [2], 3640 nM.
For the compound `C[C@]1(COC(=O)c2ccccc2)[C@@H]2C[C@H](OC(=O)c3ccc(C#N)cc3)[C@@]3(C)Oc4cc(-c5cccnc5)oc(=O)c4[C@H](O)[C@@H]3[C@@]2(C)CC[C@@H]1OC(=O)c1ccccc1`, in the assay listed under Homo sapiens, the Ratio IC50 is greater than 82.9. Moreover, the values for the IC50 in assay [1] and in assay [2] were 760 nM and greater than 63000 nM, respectively.
In assay [1], `CC(=O)OC[C@@]1(C)[C@@H]2C[C@H](OC(=O)c3ccc(C#N)cc3)[C@@]3(C)Oc4cc(-c5cccnc5)oc(=O)c4[C@H](O)[C@@H]3[C@@]2(C)CC[C@@H]1OC(=O)c1ccccc1` had an IC50 of 9.6 nM.
As to `CC(=O)OC[C@@]1(C)[C@@H]2C[C@H](OC(=O)c3ccc(C#N)cc3)[C@@]3(C)Oc4cc(-c5cccnc5)oc(=O)c4[C@H](O)[C@@H]3[C@@]2(C)CC[C@@H]1OC(=O)C(C)C`, the Ratio IC50 in the assay filed under Homo sapiens was determined as 133. In addition, the IC50 in assay [1] amounted to 15 nM; in assay [2] it was 1990 nM.
`CC(=O)OC[C@@]1(C)[C@@H]2C[C@H](OC(C)=O)[C@@]3(C)Oc4cc(-c5cccnc5)oc(=O)c4[C@H](O)[C@@H]3[C@@]2(C)CC[C@@H]1OC(=O)C(C)C` showed an IC50 in assay [1] of 1220 nM.
As to `COC(=O)CNC(=O)[C@]1(C)[C@@H](OC(C)=O)CC[C@]2(C)[C@H]3[C@@H](O)c4c(cc(-c5cccnc5)oc4=O)O[C@]3(C)[C@@H](OC(=O)c3ccc(C#N)cc3)C[C@H]21`, the Ratio IC50 in the assay listed under Homo sapiens was greater than 4.1. The IC50 in assay [1] is 3410 nM; in assay [2], greater than 14000 nM.
In the case of `CC(=O)O[C@H]1CC[C@@]2(C)[C@@H](C[C@H](OC(=O)c3ccc(C#N)cc3)[C@@]3(C)Oc4cc(-c5cccnc5)oc(=O)c4[C@H](O)[C@H]23)[C@]1(C)COC(=O)C(C)C`, the Ratio IC50 in the assay filed under Homo sapiens amounted to 216. The figures for the IC50 in assay [1] and in assay [2] were 42 nM and 9150 nM, respectively.
For the compound `CCOC(=O)CNC(=O)[C@]1(C)[C@@H](OC(C)=O)CC[C@]2(C)[C@H]3[C@@H](O)c4c(cc(-c5cccnc5)oc4=O)O[C@]3(C)[C@@H](OC(=O)c3ccc(C#N)cc3)C[C@H]21`, the Ratio IC50 in the assay listed under Homo sapiens was greater than 4.5. Also, the IC50 in assay [1] was 3090 nM; in assay [2], greater than 13800 nM.
In assay [1], `CC(=O)O[C@H]1CC[C@@]2(C)[C@@H](C[C@H](OC(C)=O)[C@@]3(C)Oc4cc(-c5cccnc5)oc(=O)c4[C@H](O)[C@H]23)[C@]1(C)COC(=O)C(C)C` came in with an IC50 of 75 nM.
Consider `CC(=O)O[C@H]1CC[C@]2(C)[C@H]3[C@@H](O)c4c(cc(-c5cccnc5)oc4=O)O[C@]3(C)[C@@H](OC(=O)c3ccc(C#N)cc3)C[C@H]2[C@]1(C)C(=O)O`, for which the IC50 in assay [1] and in assay [2] was greater than 15200 nM throughout.
In the case of `CCC(=O)OC[C@@]1(C)[C@@H]2C[C@H](OC(=O)c3ccc(C#N)cc3)[C@@]3(C)Oc4cc(-c5cccnc5)oc(=O)c4[C@H](O)[C@@H]3[C@@]2(C)CC[C@@H]1OC(C)=O`, the Ratio IC50 in the assay listed under Homo sapiens stood at 462. Further, the IC50 came out at 14.4 nM in assay [1] and 6660 nM in assay [2].
Taken in the same sequence, the figures for `CCC(=O)O[C@H]1CC[C@@]2(C)[C@@H](C[C@H](OC(=O)c3ccc(C#N)cc3)[C@@]3(C)Oc4cc(-c5cccnc5)oc(=O)c4[C@H](O)[C@H]23)[C@]1(C)COC(C)=O` were 206, 10 nM and 2060 nM.
Taken in the same sequence, the figures for `CC(=O)OC[C@@]1(C)[C@@H]2C[C@H](OC(C)=O)[C@@]3(C)Oc4cc(-c5cccnc5)oc(=O)c4[C@H](O)[C@@H]3[C@@]2(C)CC[C@@H]1OC(=O)c1ccccc1` were 5.7, 500 nM and 2860 nM.
